The values that follow come from US12122816B2, “Long acting peptide tyrosine tyrosine (PYY) analogs and methods of use” (Intarcia Therapeutics, Inc., priority 2020, dated 2024).

The nature of data set [1]: Intravenous infusion pharmacokinetics to assess clearance (CL). It counts as in vivo, Sprague-Dawley rats. The following applies: male, Sprague-Dawley, plasma, rat, 1-hour IV infusion, 0.033 mg/kg.
Description: Peptides were dissolved in 0.05% Tween-20 in PBS (pH7.4) and administered as a 1-hour subcutaneous infusion to non-fasted male Sprague-Dawley rats (n=3 per group) at a final dose of 0.033 mg/kg via a cannula placed into the femoral vein. Formulations were administered at a rate of 0.150 mL/h/kg. […] Plasma was prepared by centrifugation and stored at −80° C. until analysis.
(§2) A 70 μL aliquot of each plasma sample was placed into to a 96-well plate. To each well was added 210 μL of 0.1% TFA in 2:1 ethanol:acetonitrile containing an appropriate internal standard. Plates were vortex mixed for 10 min at 1300 rpm, and then centrifuged for 10 min at 500×g. Supernatants (210 μL) were placed into a clean 96-well plate and evaporated under a nitrogen stream at 45° C. Residues were reconstituted in 80 μL of 20% acetonitrile (aq) containing 0.1% formic acid.
(§3) All calibration standards were prepared in control rat plasma containing K2EDTA and protease inhibitor cocktail.
(§4) Samples were injected onto a 2.1×50 mm reverse phase C18 analytical column, typically a Waters CORTECS UPLC C18+, 1.6 μm (Waters Corporation, Milford, MA) or similar. […] Typical flow rates were 550 μL/min. The column temperature was held constant at 45° C. Peptides were quantified by monitoring one or more product ions produced from a multiply charged parent ion.
For the next data set, the target named is T1, human Y2 receptor (Homo sapiens, UniProt P49146).
T1 sequence (P49146 1-381): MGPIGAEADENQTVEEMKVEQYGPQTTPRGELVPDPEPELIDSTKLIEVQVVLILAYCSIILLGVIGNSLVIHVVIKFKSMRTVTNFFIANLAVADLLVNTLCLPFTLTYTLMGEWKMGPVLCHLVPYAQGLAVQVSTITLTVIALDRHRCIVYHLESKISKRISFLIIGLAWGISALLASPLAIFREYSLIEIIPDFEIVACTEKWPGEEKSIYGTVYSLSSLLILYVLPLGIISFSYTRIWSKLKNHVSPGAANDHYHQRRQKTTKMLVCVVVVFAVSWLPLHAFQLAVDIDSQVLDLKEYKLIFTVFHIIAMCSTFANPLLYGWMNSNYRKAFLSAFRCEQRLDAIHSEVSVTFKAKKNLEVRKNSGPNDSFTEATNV
Description: NPY receptor functional assay (cAMP, HEK-CNG cells, ACTOne membrane potential dye). The format is cell-based. The following applies: NPY2R pEC50, HEK-CNG cells; standard PYY(3-36); species (human or rat) not given. In outline: (§1)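 HEK-CNG cells stably expressing each human receptor; peptides added in triplicate for 50 minutes at room temperature, with agonism read as decreased isoproterenol-induced membrane potential dye signal (final/initial read).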

The target in another data set is human Y4 receptor (Homo sapiens, UniProt P50391). The data set is described as above. The format is cell-based. The following applies: standard PP, species (human or rat) not given. In outline:
as §1

The nature of data set [2]: Subcutaneous bolus injection pharmacokinetics to assess bioavailability (F). It counts as in vivo, Sprague-Dawley rats. The following applies: male, Sprague-Dawley, plasma; rat, SC bolus 0.1 mg/kg.
Description: Peptides were dissolved in sterile saline and administered to non-fasted male Sprague-Dawley rats (n=3 per group) at a dose of 0.1 mg/kg via a single bolus injection into the subcutaneous space between the scapulae. […] Plasma was prepared by centrifugation and stored at −80° C. until analysis.
as §2, §3, §4

Sequence of human Y4 receptor (P50391 whole entry): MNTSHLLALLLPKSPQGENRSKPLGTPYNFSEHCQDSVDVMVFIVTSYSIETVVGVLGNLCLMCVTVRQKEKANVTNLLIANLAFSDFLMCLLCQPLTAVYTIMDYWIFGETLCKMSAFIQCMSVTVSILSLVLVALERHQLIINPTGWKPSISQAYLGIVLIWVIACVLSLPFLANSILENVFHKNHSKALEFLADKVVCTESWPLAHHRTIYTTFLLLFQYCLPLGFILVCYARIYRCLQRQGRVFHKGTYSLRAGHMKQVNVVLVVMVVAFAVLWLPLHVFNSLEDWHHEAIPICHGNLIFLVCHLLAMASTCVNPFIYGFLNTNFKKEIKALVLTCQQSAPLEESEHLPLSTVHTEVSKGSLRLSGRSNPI

A word on the clearance: it is the volume of plasma or blood freed of the substance per unit of time. Higher therefore signals a high capacity for elimination. The term EC50 denotes the concentration giving half of the maximal effect. The low end stands for higher potency in that assay, the high end for lower potency in that assay. As a reminder, the bioavailability is dose-corrected exposure relative to a reference, in per cent. Molecule `CC(C)C[C@H](NC(=O)[C@H](Cc1ccc(O)cc1)NC(=O)[C@H](Cc1c[nH]cn1)NC(=O)[C@H](CCCNC(=N)N)NC(=O)[C@H](C)NC(=O)[C@H](CC(=O)O)NC(=O)[C@H](C)NC(=O)[C@H](Cc1ccc(O)cc1)NC(=O)[C@H](Cc1ccc(O)cc1)NC(=O)[C@H](CCCNC(=N)N)NC(=O)[C@H](CC(N)=O)NC(=O)[C@H](Cc1c[nH]c2ccccc12)NC(=O)[C@H](CCC(=O)O)NC(=O)[C@H](CCC(=O)O)NC(=O)[C@@H]1CCCN1C(=O)[C@H](CO)NC(=O)[C@H](C)NC(=O)[C@H](CC(=O)O)NC(=O)[C@H](CCCCN)NC(=O)[C@H](CCCCNC(=O)CC[C@H](NC(=O)CC[C@H](NC(=O)CCCCCCCCCCCCCCCCCCC(=O)O)C(=O)O)C(=O)O)NC(=O)[C@@H]1CCCN1C(=O)[C@H](C)NC(=O)[C@H](CCC(=O)O)NC(=O)[C@@H]1CCCN1C(=O)[C@H](CCCCN)NC(=O)[C@@H]1CCCN1)C(=O)N[C@@H](CC(N)=O)C(=O)N[C@@H](Cc1c[nH]c2ccccc12)C(=O)N[C@@H](CC(C)C)C(=O)N[C@H](C(=O)N[C@@H](CCCNC(=N)N)C(=O)N[C@@H](CCC(N)=O)C(=O)N[C@@H](CCCNC(=N)N)C(=O)N(C)[C@@H](Cc1ccc(O)cc1)C(N)=O)[C@@H](C)O` [Compound A7] displayed a clearance in data set [1] of 0.326 mL/min/kg. For the same molecule, the half-life in data set [1] (read-out: IV t1/2 (converted)) is 6.44 h. The EC50 at human Y2 receptor is 0.2 nM. Also, the “NPY4R pEC50” value on human Y4 receptor was “inactive”. For the same molecule, the bioavailability in data set [2] is 66.7%.
